# Tests used:
# Assay in all cases: relative viability (nuclei count vs DMSO), 5 days (fraction); higher = more cells survive
# [1] = compound: CC[C@H](CO)Nc1nc(NCc2ccccc2)c2ncn(C(C)C)c2n1 [Seliciclib] + Nc1ncn([C@H]2C[C@H](O)[C@@H](CO)O2)c(=O)n1 [Decitabine] (partner 2 µM)
# Method in brief: (§1)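 Relative viability is defined as nuclei in treated wells over nuclei in vehicle wells. Duplicate plates were run and medians reported. Lung cancer cell lines in 1536-well plates were dosed by pin tool one day after seeding, with one drug or with a fixed anchor-drug dose plus five library-drug doses (not always all listed) in √10 steps, and nuclei were counted after 5 days.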
# [2] = compound: CC[C@H](CO)Nc1nc(NCc2ccccc2)c2ncn(C(C)C)c2n1 [Seliciclib] + C[C@@H](Oc1cc(-c2cnn(C3CCNCC3)c2)cnc1N)c1c(Cl)ccc(F)c1Cl [Crizotinib] (partner 1 µM)
# Method in brief: as §1
# [3] = compound: CC[C@H](CO)Nc1nc(NCc2ccccc2)c2ncn(C(C)C)c2n1 [Seliciclib] + Cc1cc(Nc2cc(N3CCN(C)CC3)nc(Sc3ccc(NC(=O)C4CC4)cc3)n2)n[nH]1 [Tozasertib] (partner 0.1 µM)
# Method in brief: as §1
# [4] = compound: CC[C@H](CO)Nc1nc(NCc2ccccc2)c2ncn(C(C)C)c2n1 [Seliciclib] + CS(=O)(=O)CCNCc1ccc(-c2ccc3ncnc(Nc4ccc(OCc5cccc(F)c5)c(Cl)c4)c3c2)o1 [Lapatinib] (partner 2 µM)
# Method in brief: as §1
Cell Line,relative viability ([1]; first compound 0.08 µM),relative viability ([1]; first compound 0.253 µM),relative viability ([1]; first compound 0.8 µM),relative viability ([1]; first compound 2.53 µM),relative viability ([1]; first compound 8 µM),relative viability ([2]; first compound 0.08 µM),relative viability ([2]; first compound 0.253 µM),relative viability ([2]; first compound 0.8 µM),relative viability ([2]; first compound 2.53 µM),relative viability ([2]; first compound 8 µM),relative viability ([3]; first compound 0.08 µM),relative viability ([3]; first compound 0.253 µM),relative viability ([3]; first compound 0.8 µM),relative viability ([3]; first compound 2.53 µM),relative viability ([3]; first compound 8 µM),relative viability ([4]; first compound 0.08 µM),relative viability ([4]; first compound 0.253 µM),relative viability ([4]; first compound 0.8 µM),relative viability ([4]; first compound 2.53 µM),relative viability ([4]; first compound 8 µM)
RERF-LC-KJ,0.711,0.671,0.737,0.637,0.65,0.803,0.787,0.785,0.85,0.786,0.455,0.537,0.441,0.493,0.457,0.852,0.783,0.913,0.928,0.788
SK-LU-1,0.614,0.544,0.649,0.614,0.542,0.874,0.987,1.03,0.892,0.688,0.33,0.383,0.354,0.314,0.326,0.847,0.971,0.812,0.775,0.666
SK-MES-1,0.386,0.371,0.349,0.451,0.458,1,1,0.891,0.96,0.914,0.907,0.939,0.807,0.881,0.674,0.476,0.397,0.404,0.489,0.446
SW 1573,0.497,0.515,0.474,0.408,0.663,0.823,0.759,0.77,0.847,0.642,0.248,0.162,0.195,0.136,0.175,1.09,1.06,1.02,1.1,0.869
UMC-11,0.542,0.392,0.612,0.606,0.526,0.654,0.558,0.672,0.712,0.404,0.202,0.202,0.214,0.194,0.202,1.02,0.981,1.09,0.96,0.824
